Data set [1] has as its target T1, LRP-1 (Mus musculus, UniProt Q91ZX7).
T1 construct: from tissue; host or cells: brain of living mice (iv, icv or chronic icv antisense)
Kind of data set: Brain efflux of I-Aβ42 after acute icv antisense. The format is in vivo. Particulars: 24 h after icv antisense, compared to saline. An excerpt:
In vivo brain-to-blood efflux rate of icv antisense: A standard method was used to quantify brain-to-blood efflux rates (Banks et al., Neuroscience 121, 487-492, 2003; Jaeger et al., Proc Natl Acad Sci USA 102, 12495-12500, 2005). First, mice were anesthetized with an i.p. injection of 40% urethane. After the scalp was removed, a hole was made through the cranium (1.0 mm lateral and 0.5 mm posterior to bregma) with a 26-gauge needle. All of the needle except 2.5 to 3.0 mm of the tip was covered by PE-10 tubing. […] Injections were made into the lateral ventricle (icv) with a 1.0 μl Hamilton syringe.
For studies in which the -Slope is reported, this value was determined from a graph created with two time points (0 and 10 min) as described above. After the log of the mean % of the injected dose of radioactivity (amount detected/amount injected*100=% Inj Dose) in each brain was plotted against time (min), linear regression was used to create a line between the multiple values at these two points.
In some experiments, mice received two icv injections (antisense cocktail or saline icv and, at t=30 min or t=24 h, icv I-Aβ42). In these cases, the dose of antisense given was 200 ng/μl LR-BSA and the dose of I-Aβ42 given was 5×10^3 cpm/μl LR-BSA.
In the specificity experiment, mice received two icv injections. […]

Data set [2] has as its target T2, beta-F1 ATPase (Mus musculus, UniProt P56480).
T2 construct: from tissue; host or cells: brain / blood-brain barrier of living mice (CD-1; SAMP8 in the T-maze study)
Kind of data set: Brain perfusion uptake of I-PACAP27/I-PACAP38 after iv antisense. In kind it is in vivo. To be noted: single tail vein injection 24 h before study, 10 μg/mouse. How it is done: To test the effectiveness of PTS-6 antisenses after their intravenous administration, two month old male CD-1 mice kept on a 12/12 hour light/dark cycle with food and water freely available were given an injection by tail vein of 0.9% saline with or without 10 μg/mouse of each of the three antisenses. To determine the specificity of the PTS-6 antisense on I-PACAP27 efflux, three other antisenses were also injected iv. These were:
After 24 h, the mice were anesthetized with urethane and both jugular veins exposed. The thorax was opened, the descending thoracic aorta clamped, both jugular veins severed, and lactated Ringer's solution containing I-PACAP27 (250,000 cpm/ml) perfused through the left ventricle of the heart at the rate of 2 ml/min. ^131I-PACAP38 (hereafter referred to as I-PACAP38) was perfused in some mice treated with PTS-6 antisense. After 5 min, the perfusion was stopped and 20 ml of lactated Ringer's solution was infused through the left ventricle of the heart to wash out the vascular space of the brain. The level of radioactivity was determined in the brain and in an aliquot of the perfusion fluid and results expressed as the brain/perfusion ratio in units of μl/g.

Data set [3] has as its target T1, LRP-1. Briefly: Abluminal-to-luminal transport of I-Aβ42 in primary BMEC monolayers. In kind it is cell-based. To be noted: 1 μg/mL unlabeled Aβ42 in abluminal chamber. As for the experimental part:
Isolation of mouse brain microvascular endothelial cells (BMECs): BMECs were isolated using a modified method of Szabó et al. (Neurobiology 5, 1-16 (1997). In brief, cerebral cortices from 8-week-old CD-1 mice were isolated, cleaned of meninges, and minced. The homogenate was digested with collagenase type II (1 mg/mL) and DNase I (30 U/mL) in Dulbecco's Modified Eagle Media (DMEM) [containing 100 units/mL penicillin, 100 μg/mL streptomycin, 50 μg/mL gentamicin and 2 mM GlutaMAX-I (Invitrogen, Carlsbad, Calif.)] at 37° C. for 40 min. After digestion, 20% bovine serum albumin (BSA) dissolved in DMEM was added. The sample was then centrifuged at 1,000×g for 20 min, the supernatant containing the neurons and glial cells was removed, and the pellet containing the microvessels further digested at 37° C. for 30 min with collagenase/dispase at a concentration of 1 mg/mL (Roche, Mannheim, Germany) and DNase I (30 U/mL dissolved in DMEM). After the second enzyme digestion, we then layered the pellet on a 33% Percoll (Amersham Biosciences, Piscataway, N.J.) gradient and centrifuged at 1,000×g for 10 min to separate the microvessels. To create the Percoll gradient, 33% Percoll solution (8 mL Percoll, 14.4 mL phosphate buffered saline; PBS, 0.8 mL plasma derived serum; PDS, and 0.8 mL 10×PBS) was centrifuged at 20,300×g for 1 h, prior to this step. […]

In data set [4] the test system is P-glycoprotein. To be noted: intracranial introduction, rat; cited from earlier work.
The target in data set [5] is T1, LRP-1. Briefly: Recognition of a novel object after chronic icv infusion. The format is in vivo. Particulars: 2 wk icv infusion 100 ng/h. How it is done:
Recognition of a novel object: This method has been described previously(Jaeger et al., 2002). Briefly, recognition memory for a novel object was assessed in cocktail and random antisense treated animals (100 ng/h two week infusion). Prior to testing, mice were habituated for three consecutive days to the testing apparatus (a 58×66×11 cm white, plastic box). During habituation, each mouse was allowed to freely explore the testing apparatus for 5 min. On the first day of training, mice were placed in the testing apparatus for 5 min and allowed to explore a pair of identical objects (Objects A and B; both were 7×6.3×5.1 cm). On the second day of training, one of the original objects was replaced with a new, or novel, object (Object C; 8.2×3.8×7.4 cm). Mice were placed in the testing apparatus for 5 min and the amount of time each mouse spent sniffing or touching the novel object was recorded by an observer. Results from this study were expressed as the percent of time spent investigating the novel object.

In data set [6] the test system is LRP-1. Kind of data set: Immunohistochemistry of LRP-1 in isolated mouse brain microvessels (MBMs). In kind it is cell-based. To be noted: 10 μg/mL, 24 h, buffer = 100%. An excerpt:
Isolation of mouse brain microvessels (MBMs): Mouse brain microvessels (MBMs) were isolated by a modification of a method of Gerhart et al (Brain Res Bull 21, 785-793, 1998). All glassware was pre-coated with phosphate buffered saline (PBS) supplemented with 1% BSA (1% BSA/PBS). This was done to minimize adhesion and to maximize recovery of microvessels. Briefly, ten to twelve cerebral cortices from adult male CD-1 mice were collected and the meninges removed. They were homogenized on ice in 5 mL of cold stock buffer (25 mM HEPES, 1% dextran and 1 envelope of Minimum Essential Medium (Invitrogen), pH 7.4). The homogenate was then filtered through a series of nylon mesh membranes (300 μm, then twice through 100 μm; Spectrum, Houston, Tex.), mixed with an equal volume of 40% dextran in stock buffer, and centrifuged at 3,000×g for 30 min at 4° C. […]
Immunohistochemistry of LRP-1 in isolated MBMs: Isolated MBMs were treated with either incubation buffer, random antisense, or antisense cocktail (10 μg/mL) in incubation buffer for 24 h. […] Fluorescence was detected with Zeiss Axiovert 40 CFL fluorescent microscope (Carl Zeiss, Inc., Thornwood, N.Y.). Images were obtained from 5-6 microvessels in each group and mean fluorescent intensity was quantified using Image J analysis software (National Institute of Health, USA).

Oligonucleotides are written 5' to 3', each unit as a sugar letter and its base; * is a phosphorothioate linkage, no mark a phosphodiester; rarer units and linkages stand in square brackets, end groups in braces. Plain capitals give the bases only. d = 2'-deoxy (DNA)

T1 sequence (Q91ZX7 20-4545): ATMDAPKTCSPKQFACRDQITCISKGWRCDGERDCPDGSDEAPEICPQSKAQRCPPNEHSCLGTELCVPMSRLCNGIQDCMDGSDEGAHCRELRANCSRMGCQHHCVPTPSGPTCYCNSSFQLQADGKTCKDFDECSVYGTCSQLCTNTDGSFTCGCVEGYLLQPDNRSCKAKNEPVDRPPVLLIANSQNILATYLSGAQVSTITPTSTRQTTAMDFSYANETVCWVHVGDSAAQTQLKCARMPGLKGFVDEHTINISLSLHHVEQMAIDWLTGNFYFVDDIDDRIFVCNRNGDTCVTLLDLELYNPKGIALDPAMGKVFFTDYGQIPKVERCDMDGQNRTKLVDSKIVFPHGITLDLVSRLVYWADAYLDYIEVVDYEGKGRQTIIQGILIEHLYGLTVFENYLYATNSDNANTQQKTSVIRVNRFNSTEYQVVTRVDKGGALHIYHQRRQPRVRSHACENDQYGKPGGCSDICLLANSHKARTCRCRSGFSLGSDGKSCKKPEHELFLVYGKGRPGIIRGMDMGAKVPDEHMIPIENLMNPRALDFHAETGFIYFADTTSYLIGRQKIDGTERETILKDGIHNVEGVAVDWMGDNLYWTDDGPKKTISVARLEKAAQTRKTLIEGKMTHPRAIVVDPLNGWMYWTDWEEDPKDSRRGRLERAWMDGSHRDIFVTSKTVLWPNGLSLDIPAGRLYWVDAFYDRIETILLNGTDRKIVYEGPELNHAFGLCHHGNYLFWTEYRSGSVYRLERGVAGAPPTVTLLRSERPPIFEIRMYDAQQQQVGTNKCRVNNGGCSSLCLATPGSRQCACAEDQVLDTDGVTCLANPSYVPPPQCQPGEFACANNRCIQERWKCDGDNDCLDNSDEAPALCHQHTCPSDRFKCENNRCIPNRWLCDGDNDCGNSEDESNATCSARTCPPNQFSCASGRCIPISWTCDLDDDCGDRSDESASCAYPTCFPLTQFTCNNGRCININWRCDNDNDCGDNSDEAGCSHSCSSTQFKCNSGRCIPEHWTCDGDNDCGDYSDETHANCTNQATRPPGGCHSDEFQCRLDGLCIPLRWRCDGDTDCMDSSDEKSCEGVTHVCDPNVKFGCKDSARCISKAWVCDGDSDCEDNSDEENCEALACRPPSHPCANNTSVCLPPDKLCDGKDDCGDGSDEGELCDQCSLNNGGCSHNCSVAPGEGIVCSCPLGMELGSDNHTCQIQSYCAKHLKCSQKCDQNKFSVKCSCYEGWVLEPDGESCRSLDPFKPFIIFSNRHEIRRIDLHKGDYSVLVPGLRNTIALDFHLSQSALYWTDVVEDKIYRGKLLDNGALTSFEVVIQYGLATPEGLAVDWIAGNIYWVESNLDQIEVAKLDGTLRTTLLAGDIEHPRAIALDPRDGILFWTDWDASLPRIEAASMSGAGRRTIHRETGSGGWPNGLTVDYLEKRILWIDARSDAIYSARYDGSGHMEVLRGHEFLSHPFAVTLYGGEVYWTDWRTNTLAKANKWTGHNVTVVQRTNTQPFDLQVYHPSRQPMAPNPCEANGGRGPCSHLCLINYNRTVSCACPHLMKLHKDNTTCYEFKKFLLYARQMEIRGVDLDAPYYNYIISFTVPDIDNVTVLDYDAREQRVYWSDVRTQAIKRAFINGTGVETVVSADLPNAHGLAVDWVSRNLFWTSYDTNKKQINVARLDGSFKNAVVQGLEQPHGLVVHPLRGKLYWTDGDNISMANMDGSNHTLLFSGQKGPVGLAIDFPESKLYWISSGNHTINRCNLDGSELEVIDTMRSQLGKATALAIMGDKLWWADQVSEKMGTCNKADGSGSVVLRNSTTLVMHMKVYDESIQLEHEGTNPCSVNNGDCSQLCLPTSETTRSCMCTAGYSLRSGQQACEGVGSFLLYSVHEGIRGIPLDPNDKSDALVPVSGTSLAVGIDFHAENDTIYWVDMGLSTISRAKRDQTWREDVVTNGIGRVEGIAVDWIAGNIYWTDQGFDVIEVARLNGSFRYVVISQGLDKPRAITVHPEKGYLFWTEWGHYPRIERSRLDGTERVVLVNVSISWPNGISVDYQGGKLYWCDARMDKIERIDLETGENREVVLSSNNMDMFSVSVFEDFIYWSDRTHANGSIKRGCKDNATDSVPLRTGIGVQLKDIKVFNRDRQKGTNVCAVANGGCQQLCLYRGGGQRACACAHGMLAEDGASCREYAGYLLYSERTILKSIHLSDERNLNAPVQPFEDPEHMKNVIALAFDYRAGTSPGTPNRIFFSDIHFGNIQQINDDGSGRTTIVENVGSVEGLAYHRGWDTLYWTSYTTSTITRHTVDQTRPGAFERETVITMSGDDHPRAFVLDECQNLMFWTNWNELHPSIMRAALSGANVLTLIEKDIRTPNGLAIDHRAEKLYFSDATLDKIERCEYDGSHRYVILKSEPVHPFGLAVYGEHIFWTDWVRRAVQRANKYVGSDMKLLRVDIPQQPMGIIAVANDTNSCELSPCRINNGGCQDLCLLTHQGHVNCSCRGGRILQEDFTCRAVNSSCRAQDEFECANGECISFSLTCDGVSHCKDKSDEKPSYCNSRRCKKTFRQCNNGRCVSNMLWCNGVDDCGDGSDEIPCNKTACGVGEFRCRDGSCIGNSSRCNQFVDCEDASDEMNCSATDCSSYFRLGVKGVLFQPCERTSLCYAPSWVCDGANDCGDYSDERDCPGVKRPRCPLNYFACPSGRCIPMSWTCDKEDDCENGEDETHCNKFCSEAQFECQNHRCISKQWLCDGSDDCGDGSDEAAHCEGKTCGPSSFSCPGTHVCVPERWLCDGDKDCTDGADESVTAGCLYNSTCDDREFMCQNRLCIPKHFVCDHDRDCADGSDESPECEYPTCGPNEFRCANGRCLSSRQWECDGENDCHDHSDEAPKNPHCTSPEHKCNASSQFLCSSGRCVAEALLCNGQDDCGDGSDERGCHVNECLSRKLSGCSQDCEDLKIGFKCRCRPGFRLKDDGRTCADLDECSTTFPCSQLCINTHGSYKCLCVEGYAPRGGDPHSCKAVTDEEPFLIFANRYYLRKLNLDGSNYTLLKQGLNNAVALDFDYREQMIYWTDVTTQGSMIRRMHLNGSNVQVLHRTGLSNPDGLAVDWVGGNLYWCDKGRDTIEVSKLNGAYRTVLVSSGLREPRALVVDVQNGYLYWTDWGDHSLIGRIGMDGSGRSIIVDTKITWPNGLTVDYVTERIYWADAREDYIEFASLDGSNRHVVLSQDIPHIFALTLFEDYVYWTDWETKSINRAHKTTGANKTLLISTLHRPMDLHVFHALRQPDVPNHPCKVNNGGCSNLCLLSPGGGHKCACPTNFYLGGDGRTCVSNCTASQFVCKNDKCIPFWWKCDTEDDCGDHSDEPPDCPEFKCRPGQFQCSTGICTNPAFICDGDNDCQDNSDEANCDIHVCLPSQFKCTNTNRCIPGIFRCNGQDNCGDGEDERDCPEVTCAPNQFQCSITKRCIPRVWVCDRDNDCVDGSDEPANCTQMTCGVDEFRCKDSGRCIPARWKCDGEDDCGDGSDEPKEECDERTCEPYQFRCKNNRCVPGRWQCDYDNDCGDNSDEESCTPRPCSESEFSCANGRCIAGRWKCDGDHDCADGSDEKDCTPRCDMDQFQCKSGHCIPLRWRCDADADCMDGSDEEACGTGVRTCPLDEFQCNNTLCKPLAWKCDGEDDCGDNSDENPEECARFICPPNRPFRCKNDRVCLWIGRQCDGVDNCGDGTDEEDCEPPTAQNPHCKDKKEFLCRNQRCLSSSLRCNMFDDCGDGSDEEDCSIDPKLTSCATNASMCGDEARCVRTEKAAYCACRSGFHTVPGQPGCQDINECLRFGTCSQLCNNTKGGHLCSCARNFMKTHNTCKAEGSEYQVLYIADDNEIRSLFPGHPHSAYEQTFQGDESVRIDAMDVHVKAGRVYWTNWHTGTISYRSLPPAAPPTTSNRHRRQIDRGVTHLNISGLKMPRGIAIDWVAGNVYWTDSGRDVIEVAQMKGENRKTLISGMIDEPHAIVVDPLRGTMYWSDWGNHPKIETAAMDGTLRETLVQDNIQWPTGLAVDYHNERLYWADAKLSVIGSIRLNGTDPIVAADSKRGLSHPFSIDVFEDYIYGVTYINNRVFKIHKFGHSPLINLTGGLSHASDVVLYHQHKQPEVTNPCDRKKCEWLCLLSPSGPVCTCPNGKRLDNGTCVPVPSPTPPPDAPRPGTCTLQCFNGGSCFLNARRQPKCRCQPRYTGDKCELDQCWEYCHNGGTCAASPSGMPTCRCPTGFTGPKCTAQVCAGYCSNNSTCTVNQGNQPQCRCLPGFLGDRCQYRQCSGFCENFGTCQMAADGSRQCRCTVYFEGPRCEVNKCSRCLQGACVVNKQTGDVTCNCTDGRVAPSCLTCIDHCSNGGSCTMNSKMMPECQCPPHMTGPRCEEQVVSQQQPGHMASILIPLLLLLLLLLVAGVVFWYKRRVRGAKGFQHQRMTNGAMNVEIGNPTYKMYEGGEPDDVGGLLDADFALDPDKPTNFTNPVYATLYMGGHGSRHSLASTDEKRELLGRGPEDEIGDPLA
T2 sequence (P56480 47-529): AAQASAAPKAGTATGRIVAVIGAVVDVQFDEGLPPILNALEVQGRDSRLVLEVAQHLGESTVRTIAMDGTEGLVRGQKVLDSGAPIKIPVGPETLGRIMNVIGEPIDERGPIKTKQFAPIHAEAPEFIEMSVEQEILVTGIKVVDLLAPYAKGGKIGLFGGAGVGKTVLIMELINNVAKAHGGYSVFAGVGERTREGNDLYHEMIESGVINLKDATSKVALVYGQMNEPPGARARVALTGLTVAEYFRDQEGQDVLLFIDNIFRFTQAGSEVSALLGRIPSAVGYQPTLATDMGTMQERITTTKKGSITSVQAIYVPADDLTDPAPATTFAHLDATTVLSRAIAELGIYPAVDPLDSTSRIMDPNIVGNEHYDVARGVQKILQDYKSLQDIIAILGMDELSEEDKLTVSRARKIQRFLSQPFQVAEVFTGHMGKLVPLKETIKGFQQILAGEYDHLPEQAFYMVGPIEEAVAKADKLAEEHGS

Take “5′-(_P═S)GGCGCCTTTGTTCGAACCCACATCTTCAGCAAAGAACACCAG-3′ (antisense dG*dG*dC*dG*dC*dC*dT*dT*dT*dG*dT*dT*dC*dG*dA*dA*dC*dC*dC*dA*dC*dA*dT*dC*dT*dT*dC*dA*dG*dC*dA*dA*dA*dG*dA*dA*dC*dA*dC*dC*dA*dG; listed as Mus musculus)”: in data set [1], the “brain efflux of I-Aβ42 (specificity experiment)” value was “significant increase”. In data set [2], the “uptake of I-PACAP27 delivered by brain perfusion” value is “no statistically significant effect”. In the case of “Aβ42: 42 amino acid murine amyloid beta (DAEFGHDSGFEVRHQKLVFFAEDVGSNKGAIIGLMVGGVVIA; Amyloid-beta protein 42; UniProt P12023 672-713, looked up)”, the “abluminal-to-luminal transport of I-Aβ42 (saturability)” value in data set [3] is “significantly (p<0.01) inhibited”. Regarding “5′-GGACTAAATGCTTTCCTTTGTGACAG-3′ (listed as DNA, chemistry not given here; listed as Rattus norvegicus) [SEQ ID NO 16]”, in data set [4], the “P-glycoprotein expression in the brain” value is listed as “reduction of the rat P-glycoprotein expression”. As for “5′-(_P═S)GAGAAGGTTGTGTGATCTTCA (antisense dG*dA*dG*dA*dA*dG*dG*dT*dT*dG*dT*dG*dT*dG*dA*dT*dC*dT*dT*dC*dA; listed as Mus musculus) [random antisense]”, in data set [5], the “time spent investigating the novel object” value is on record as “spent a majority of their time investigating the new object”. Besides, in data set [6], the “mean fluorescent intensity (LRP-1 immunofluorescence)” value was 111.14%. As to “5′-(_P═S)TCATGAAGCC-3′ (antisense dT*dC*dA*dT*dG*dA*dA*dG*dC*dC; listed as Mus musculus)”, in data set [1], the “brain efflux of I-Aβ42 (specificity experiment)” value is “significant increase”. Further, the “uptake of I-PACAP27 delivered by brain perfusion” value in data set [2] is on record as “no statistically significant effect”.
